Data as given in patent US7956039B2, “Use of amygdalin analogues for the treatment of psoriasis” (Universitat Politècnica De Catalunya, priority 2004, dated 2011).

Experiments:
[1] = test system: Blood mononuclear cells; assay: Monocyte chemotaxis assay in modified Boyden chamber; format: cell-based, human; settings: for −log[A] (concentration of maximum chemotactic index): concentration [A] at which the maximum chemotactic index occurs; for Chemotactic index (maximum value): ratio of migration distance towards attractant to distance towards buffer, tested 10^−12 to 10^−7 mol/L
Description: Activity of Compounds (I) in Monocyte Chemotaxis Assays
Blood mononuclear cells were isolated from heparinized blood of human volunteers by Ficoll sedimentation. Chemotaxis was measured in a modified Boyden chamber using a Millipore […] that divided the upper and lower compartments. Mononuclear cells (0.5×10^6) in Krebs-Ringer phosphate (KRP) buffer were placed into the upper wells. Compounds (I) were dissolved in DMSO at 10^−2 mol/L, diluted with KRP buffer containing 1 mg/mL of bovine serum albumin and tested in the bottom compartment at a final concentration ranging from 10^−12 to 10^−7 mol/L. For an accurate comparison, the results of the different analogues were expressed as chemotactic index, which is the ratio of the distance of migration towards tested attractant and the distance towards the buffer. Migration in the presence of buffer was only […] (mean±SEM). Maximum migration for CHO-Met-Leu-Phe-OH (FMLP) occurred at 10^−8 mol/L and was […] in these experiments (chemotactic index 1.94±0.03). CD4 receptor binding for the test analogues was confirmed by blocking their chemotactic effects using low concentrations (0.1-0.2 mg/mL) of OKT4, a specific monoclonal antibody for CD4 molecules. In this test, migration response was not influenced by OKT4.

[2] = test system: monocytes; settings: cited from earlier work

## CCC(O[C@@H]1O[C@H](CO[C@@H]2O[C@H](CO)[C@@H](O)[C@H](O)[C@H]2O)[C@@H](O)[C@H](O)[C@H]1O)c1ccccc1 (mixture of isomers) [Compound (I-4), (1 RS)-1-phenylpropyl 6-O-(β-D-glucopyranosyl)-β-D-glucopyranoside]
[1]
  −log[A] (concentration of maximum chemotactic index): 6
  Chemotactic index (maximum value): 0.75

## CC(C)(C)C(O[C@@H]1O[C@H](CO[C@@H]2O[C@H](CO)[C@@H](O)[C@H](O)[C@H]2O)[C@@H](O)[C@H](O)[C@H]1O)c1ccccc1 (mixture of isomers) [Compound (I-5), (1RS) 1-phenyl-2,2-dimethylpropyl-6-O-(β-D-glucopyranosyl)-β-D-glucopyranoside]
[1]
  −log[A] (concentration of maximum chemotactic index): 9
  Chemotactic index (maximum value): 0.84

## N#C[C@H](O[C@@H]1O[C@H](CO[C@@H]2O[C@H](CO)[C@@H](O)[C@H](O)[C@H]2O)[C@@H](O)[C@H](O)[C@H]1O)c1ccccc1 [Amygdalin, amygdalin]
[1]
  −log[A] (concentration of maximum chemotactic index): 10
  Chemotactic index (maximum value): 0.63
[2]
  Chemotactic profile compared with peptide T: chemotactic profile similar to that of peptide T

## COc1ccc(CO[C@@H]2O[C@H](CO[C@@H]3O[C@H](CO)[C@@H](O)[C@H](O)[C@H]3O)[C@@H](O)[C@H](O)[C@H]2O)cc1 [Compound (I-1), 4-methoxybenzyl 6-O-(β-D-glucopyranosyl)-β-D-Glucopyranoside]
[1]
  −log[A] (concentration of maximum chemotactic index): 10
  Chemotactic index (maximum value): 0.87

## OC[C@H]1O[C@@H](OC[C@H]2O[C@@H](OCc3ccccc3)[C@H](O)[C@@H](O)[C@@H]2O)[C@H](O)[C@@H](O)[C@@H]1O [Compound (I-2), benzyl 6-O-(β-D-glucopyranosyl)4-D-glycopyranoside]
[1]
  −log[A] (concentration of maximum chemotactic index): 8
  Chemotactic index (maximum value): 0.76

## CC(O[C@@H]1O[C@H](CO[C@@H]2O[C@H](CO)[C@@H](O)[C@H](O)[C@H]2O)[C@@H](O)[C@H](O)[C@H]1O)c1ccccc1 (stereo partly drawn) [Compound (I-3), (1 RS)-1-phenylethyl-6-O-(β-D-glucopyranosyl)-β-D-glucopyranoside]
[1]
  −log[A] (concentration of maximum chemotactic index): 8
  Chemotactic index (maximum value): 0.77

## O=C(O)[C@H](O[C@@H]1O[C@H](CO[C@@H]2O[C@H](CO)[C@@H](O)[C@H](O)[C@H]2O)[C@@H](O)[C@H](O)[C@H]1O)c1ccccc1 [Compound (I-6), (2R) (6-O-(β-D-glucopyranosyl)-β-D-glucopyranosyloxy)-phenylacetic acid]
[1]
  −log[A] (concentration of maximum chemotactic index): 9
  Chemotactic index (maximum value): 0.85

## NC(=O)[C@H](O[C@@H]1O[C@H](CO[C@@H]2O[C@H](CO)[C@@H](O)[C@H](O)[C@H]2O)[C@@H](O)[C@H](O)[C@H]1O)c1ccccc1 [Compound (I-7)]
[1]
  −log[A] (concentration of maximum chemotactic index): 7
  Chemotactic index (maximum value): 0.84

## C#CC(O[C@@H]1O[C@H](CO[C@@H]2O[C@H](CO)[C@@H](O)[C@H](O)[C@H]2O)[C@@H](O)[C@H](O)[C@H]1O)c1ccccc1 (stereo partly drawn) [Compound (I-8), (1 RS) 1-phenyl-2-propynyl-6-O-(β-D-Glucopyranosyl)-β-D-glucopyranoside]
[1]
  −log[A] (concentration of maximum chemotactic index): 6
  Chemotactic index (maximum value): 0.79

## OC[C@H]1O[C@@H](OC[C@H]2O[C@@H](OCc3ccccc3Cl)[C@H](O)[C@@H](O)[C@@H]2O)[C@H](O)[C@@H](O)[C@@H]1O [Compound (I-10), 2-chlorobenzyl 6-O-(β-D-gluconyranosyl)-β-D-Glucopyranoside]
[1]
  −log[A] (concentration of maximum chemotactic index): 10
  Chemotactic index (maximum value): 0.94

## COc1ccc(CO[C@@H]2O[C@H](CO[C@@H]3O[C@H](CO)[C@@H](O)[C@H](O)[C@H]3O)[C@@H](O)[C@H](O)[C@H]2O)c(OC)c1 [Compound (I-11), 2.4-dimethoxybenzyl 6-O-(β-D-glucopyranosyl)-β-D-glucopyranoside]
[1]
  −log[A] (concentration of maximum chemotactic index): 10
  Chemotactic index (maximum value): 0.84

## OC[C@H]1O[C@@H](OC[C@H]2O[C@@H](OCCc3ccccc3)[C@H](O)[C@@H](O)[C@@H]2O)[C@H](O)[C@@H](O)[C@@H]1O [Compound (I-17), 2-phenylethyl 6-O-(β-D-glucopyranosyl)-β-D-glucopyranoside]
[1]
  −log[A] (concentration of maximum chemotactic index): 9
  Chemotactic index (maximum value): 0.70

## CHO-Met-Leu-Phe-OH [FMLP, reference compound]
[1]
  Concentration of maximum migration: 10^−8 mol/L
[1]; at maximum migration, 10^−8 mol/L
  Chemotactic index: 1.94±0.03
